Reference: US9738634B2, “Heterocyclic amide compound and herbicide” (SYNGENTA PARTICIPATIONS AG, priority 2013, dated 2017)

Tests used:
Assay type in all cases: in vivo
Details in all cases: treatment dosage 320 g/ha
barnyard grass [1] = assay: Test Example 1: weedkilling efficacy, preemergent weed treatment in the submerged state; A: barnyard grass
Method in brief: (§1)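 Pre-emergence application onto floodwater (4 cm, alluvial soil) on the day of sowing, dose expressed as g/ha from diluted emulsion formulation. Weeds sown with 2.5-leaf transplanted rice as crop; plants held at 25–30 °C in greenhouse and scored against assessment criteria after 3 weeks.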

bulrush [2] = assay: Test Example 1: weedkilling efficacy, preemergent weed treatment in the submerged state; B: bulrush
Method in brief: as §1

oval-leafed pondweed [3] = assay: Test Example 1: weedkilling efficacy, preemergent weed treatment in the submerged state; C: oval-leafed pondweed
Method in brief: as §1

transplanted rice = assay: Test Example 1: preemergent weed treatment in the submerged state, effect on crop; a: transplanted rice
Method in brief: as §1

barnyard grass [4] = assay: Test Example 2: weedkilling efficacy, growth period weed treatment in the submerged state; A: barnyard grass
Method in brief: (§2)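 Weeds treated at the 1-2 leaf stage by application of diluted emulsion onto floodwater (4 cm depth, alluvial soil) at specified g/ha. Grown in greenhouse at 25 to 30° C; herbicidal effect rated three weeks after treatment.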

bulrush [5] = assay: Test Example 2: weedkilling efficacy, growth period weed treatment in the submerged state; B: bulrush
Method in brief: as §2

oval-leafed pondweed [6] = assay: Test Example 2: weedkilling efficacy, growth period weed treatment in the submerged state; C: oval-leafed pondweed
Method in brief: as §2

crabgrass [7] = assay: Test Example 3: weedkilling efficacy through soil treatment; D: crabgrass
Method in brief: (§3)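 Crop and weed responses were judged three weeks after a uniform surface spray of the water-diluted emulsion at the given g/ha rate. Seeds sat beneath about 1.5 cm of sterilized diluvial soil, and boxes stood in a greenhouse at 25 to 30° C.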

green foxtail [8] = assay: Test Example 3: weedkilling efficacy through soil treatment; E: green foxtail
Method in brief: as §3

barnyard grass [9] = assay: Test Example 3: weedkilling efficacy through soil treatment; F: barnyard grass
Method in brief: as §3

wild oat [10] = assay: Test Example 3: weedkilling efficacy through soil treatment; G: wild oat
Method in brief: as §3

black-grass [11] = assay: Test Example 3: weedkilling efficacy through soil treatment; H: black-grass
Method in brief: as §3

Italian ryegrass [12] = assay: Test Example 3: weedkilling efficacy through soil treatment; I: Italian ryegrass
Method in brief: as §3

common wind-grass [13] = assay: Test Example 3: weedkilling efficacy through soil treatment; J: common wind-grass
Method in brief: as §3

Indian mallow [14] = assay: Test Example 3: weedkilling efficacy through soil treatment; K: Indian mallow
Method in brief: as §3

redroot pigweed [15] = assay: Test Example 3: weedkilling efficacy through soil treatment; L: redroot pigweed
Method in brief: as §3

chickweed [16] = assay: Test Example 3: weedkilling efficacy through soil treatment; N: chickweed
Method in brief: as §3

catchweed [17] = assay: Test Example 3: weedkilling efficacy through soil treatment; O: catchweed
Method in brief: as §3

birds-eye speedwell [18] = assay: Test Example 3: weedkilling efficacy through soil treatment; p: birds-eye speedwell
Method in brief: as §3

directly sown rice [19] = assay: Test Example 3: soil treatment, effect on crop; b: directly sown rice
Method in brief: as §3

corn [20] = assay: Test Example 3: soil treatment, effect on crop; c: corn
Method in brief: as §3

soybean [21] = assay: Test Example 3: soil treatment, effect on crop; d: soybean
Method in brief: as §3

wheat [22] = assay: Test Example 3: soil treatment, effect on crop; e: wheat
Method in brief: as §3

beet [23] = assay: Test Example 3: soil treatment, effect on crop; f: beet
Method in brief: as §3

rapeseed [24] = assay: Test Example 3: soil treatment, effect on crop; g: rapeseed
Method in brief: as §3

crabgrass [25] = assay: Test Example 4: weedkilling efficacy by foliar treatment; D: crabgrass
Method in brief: (§4)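 Seeds are spot-sown into sterilized diluvial soil and covered with about 1.5 cm of soil. After 14 days' greenhouse growth at 25 to 30° C, plants are sprayed on stems and leaves with diluted emulsion at the stated g/ha rate, then scored at 3 weeks.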

green foxtail [26] = assay: Test Example 4: weedkilling efficacy by foliar treatment; E: green foxtail
Method in brief: as §4

barnyard grass [27] = assay: Test Example 4: weedkilling efficacy by foliar treatment; F: barnyard grass
Method in brief: as §4

wild oat [28] = assay: Test Example 4: weedkilling efficacy by foliar treatment; G: wild oat
Method in brief: as §4

black-grass [29] = assay: Test Example 4: weedkilling efficacy by foliar treatment; H: black-grass
Method in brief: as §4

Italian ryegrass [30] = assay: Test Example 4: weedkilling efficacy by foliar treatment; I: Italian ryegrass
Method in brief: as §4

common wind-grass [31] = assay: Test Example 4: weedkilling efficacy by foliar treatment; J: common wind-grass
Method in brief: as §4

Indian mallow [32] = assay: Test Example 4: weedkilling efficacy by foliar treatment; K: Indian mallow
Method in brief: as §4

redroot pigweed [33] = assay: Test Example 4: weedkilling efficacy by foliar treatment; L: redroot pigweed
Method in brief: as §4

fig-leafed goosefoot = assay: Test Example 4: weedkilling efficacy by foliar treatment; M: fig-leafed goosefoot
Method in brief: as §4

chickweed [34] = assay: Test Example 4: weedkilling efficacy by foliar treatment; N: chickweed
Method in brief: as §4

catchweed [35] = assay: Test Example 4: weedkilling efficacy by foliar treatment; O: catchweed
Method in brief: as §4

birds-eye speedwell [36] = assay: Test Example 4: weedkilling efficacy by foliar treatment; p: birds-eye speedwell
Method in brief: as §4

directly sown rice [37] = assay: Test Example 4: foliar treatment, effect on crop; b: directly sown rice
Method in brief: as §4

corn [38] = assay: Test Example 4: foliar treatment, effect on crop; c: corn
Method in brief: as §4

soybean [39] = assay: Test Example 4: foliar treatment, effect on crop; d: soybean
Method in brief: as §4

wheat [40] = assay: Test Example 4: foliar treatment, effect on crop; e: wheat
Method in brief: as §4

beet [41] = assay: Test Example 4: foliar treatment, effect on crop; f: beet
Method in brief: as §4

rapeseed [42] = assay: Test Example 4: foliar treatment, effect on crop; g: rapeseed
Method in brief: as §4

CC1=C(c2ccccc2)C(=O)N(C(C)(C)C(=O)Nc2cc(OC(F)F)ccn2)CO1 [B-2-64]
A (barnyard grass) weedkilling efficacy grade (barnyard grass [1]): 5 (weed kill ratio 90% or more, (practically complete withering))
B (bulrush) weedkilling efficacy grade (bulrush [2]): 5 (weed kill ratio 90% or more, (practically complete withering))
C (oval-leafed pondweed) weedkilling efficacy grade (oval-leafed pondweed [3]): 5 (weed kill ratio 90% or more, (practically complete withering))
a (transplanted rice) effect on crop grade (transplanted rice): 4 (weed kill ratio 70% or more, less than 90%)
A (barnyard grass) weedkilling efficacy grade (barnyard grass [4]): 5 (weed kill ratio 90% or more, (practically complete withering))
B (bulrush) weedkilling efficacy grade (bulrush [5]): 5 (weed kill ratio 90% or more, (practically complete withering))
C (oval-leafed pondweed) weedkilling efficacy grade (oval-leafed pondweed [6]): 5 (weed kill ratio 90% or more, (practically complete withering))
D (crabgrass) weedkilling efficacy grade (crabgrass [7]): 5 (weed kill ratio 90% or more, (practically complete withering))
E (green foxtail) weedkilling efficacy grade (green foxtail [8]): 5 (weed kill ratio 90% or more, (practically complete withering))
F (barnyard grass) weedkilling efficacy grade (barnyard grass [9]): 5 (weed kill ratio 90% or more, (practically complete withering))
G (wild oat) weedkilling efficacy grade (wild oat [10]): 3 (weed kill ratio 40% or more, less than 70%)
H (black-grass) weedkilling efficacy grade (black-grass [11]): 5 (weed kill ratio 90% or more, (practically complete withering))
I (Italian ryegrass) weedkilling efficacy grade (Italian ryegrass [12]): 5 (weed kill ratio 90% or more, (practically complete withering))
J (common wind-grass) weedkilling efficacy grade (common wind-grass [13]): 5 (weed kill ratio 90% or more, (practically complete withering))
K (Indian mallow) weedkilling efficacy grade (Indian mallow [14]): 3 (weed kill ratio 40% or more, less than 70%)
L (redroot pigweed) weedkilling efficacy grade (redroot pigweed [15]): 4 (weed kill ratio 70% or more, less than 90%)
N (chickweed) weedkilling efficacy grade (chickweed [16]): 4 (weed kill ratio 70% or more, less than 90%)
O (catchweed) weedkilling efficacy grade (catchweed [17]): 0 (weed kill ratio 5% or less (practically no effect))
P (birds-eye speedwell) weedkilling efficacy grade (birds-eye speedwell [18]): 5 (weed kill ratio 90% or more, (practically complete withering))
b (directly sown rice) effect on crop grade (directly sown rice [19]): 4 (weed kill ratio 70% or more, less than 90%)
c (corn) effect on crop grade (corn [20]): 1 (weed kill ratio 5% or more, less than 20%)
d (soybean) effect on crop grade (soybean [21]): 0 (weed kill ratio 5% or less (practically no effect))
e (wheat) effect on crop grade (wheat [22]): 0 (weed kill ratio 5% or less (practically no effect))
f (beet) effect on crop grade (beet [23]): 4 (weed kill ratio 70% or more, less than 90%)
g (rapeseed) effect on crop grade (rapeseed [24]): 3 (weed kill ratio 40% or more, less than 70%)
D (crabgrass) weedkilling efficacy grade (crabgrass [25]): 5 (weed kill ratio 90% or more, (practically complete withering))
E (green foxtail) weedkilling efficacy grade (green foxtail [26]): 5 (weed kill ratio 90% or more, (practically complete withering))
F (barnyard grass) weedkilling efficacy grade (barnyard grass [27]): 5 (weed kill ratio 90% or more, (practically complete withering))
G (wild oat) weedkilling efficacy grade (wild oat [28]): 4 (weed kill ratio 70% or more, less than 90%)
H (black-grass) weedkilling efficacy grade (black-grass [29]): 5 (weed kill ratio 90% or more, (practically complete withering))
I (Italian ryegrass) weedkilling efficacy grade (Italian ryegrass [30]): 5 (weed kill ratio 90% or more, (practically complete withering))
J (common wind-grass) weedkilling efficacy grade (common wind-grass [31]): 5 (weed kill ratio 90% or more, (practically complete withering))
K (Indian mallow) weedkilling efficacy grade (Indian mallow [32]): 4 (weed kill ratio 70% or more, less than 90%)
L (redroot pigweed) weedkilling efficacy grade (redroot pigweed [33]): 4 (weed kill ratio 70% or more, less than 90%)
M (fig-leafed goosefoot) weedkilling efficacy grade (fig-leafed goosefoot): 4 (weed kill ratio 70% or more, less than 90%)
N (chickweed) weedkilling efficacy grade (chickweed [34]): 4 (weed kill ratio 70% or more, less than 90%)
O (catchweed) weedkilling efficacy grade (catchweed [35]): 4 (weed kill ratio 70% or more, less than 90%)
P (birds-eye speedwell) weedkilling efficacy grade (birds-eye speedwell [36]): 4 (weed kill ratio 70% or more, less than 90%)
b (directly sown rice) effect on crop grade (directly sown rice [37]): 4 (weed kill ratio 70% or more, less than 90%)
c (corn) effect on crop grade (corn [38]): 0 (weed kill ratio 5% or less (practically no effect))
d (soybean) effect on crop grade (soybean [39]): 4 (weed kill ratio 70% or more, less than 90%)
e (wheat) effect on crop grade (wheat [40]): 0 (weed kill ratio 5% or less (practically no effect))
f (beet) effect on crop grade (beet [41]): 4 (weed kill ratio 70% or more, less than 90%)
g (rapeseed) effect on crop grade (rapeseed [42]): 4 (weed kill ratio 70% or more, less than 90%)
